Test systems include HCC 2998; CAKI-1; SK-MEL-5; OVCAR-5; HOP-92; NCI-H460; UACC-62; SNB-75; DLD-1; UACC-257; NCI-H23; UO-31; 786-0; HOP-62; OVCAR-4; MDA-N; SR; MDA-MB-435; U-251; T47D.
What all share (experiment): growth of human tumour cells (NCI), 48 h

Consider eight compounds from ChEMBL document CHEMBL1201862, “PubChem BioAssay data set” (2004).

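How tested: cells in 96-well plates exposed to compound for 48 hours at five concentrations. Here, GI50 denotes the concentration required for 50% inhibition of growth.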 The source made the active and inactive calls. No stated cut-off is given here; in the data, active = GI50 up to about 1.1 µM and inactive = higher.

As for `CC(C)(C)C(C#N)(C#N)c1ccc(C(C#N)(C#N)C(C)(C)C)nn1`, the GI50 was > 100 µM (inactive) in the test with HCC 2998; 83 µM (inactive) in the test with CAKI-1; > 100 µM (inactive) with SK-MEL-5; > 100 µM (inactive) with OVCAR-5; 72.4 µM (inactive) in the test on HOP-92; > 100 µM (inactive) in the test with NCI-H460. Also, the GI50 was > 100 µM (inactive) in the test on UACC-62; 23.6 µM (inactive) in the test with SNB-75; > 100 µM (inactive) in the test on DLD-1; > 100 µM (inactive) in the test with UACC-257; > 100 µM (inactive) with NCI-H23; > 100 µM (inactive) in the test on UO-31. In addition, the GI50 with 786-0 was 74 µM (inactive); in the test with HOP-62, > 100 µM (inactive); in the test with OVCAR-4 it was 89.7 µM (inactive).

In the case of `N=C(N)NS(=O)(=O)c1ccc(NC(=O)c2cccc3c(NNc4ccc(S(=O)(=O)N=C(N)N)cc4)c4ccccc4nc23)cc1`, the GI50 in the test with HCC 2998 is 90.6 µM (inactive); in the test on MDA-N, 91.4 µM (inactive); in the test with CAKI-1, > 100 µM (inactive); with SK-MEL-5, 56.9 µM (inactive); in the test on OVCAR-5 it was > 100 µM (inactive); in the test on HOP-92, 47.4 µM (inactive). The GI50 in the test with NCI-H460 is 32.7 µM (inactive); in the test on UACC-62, 46.9 µM (inactive); with SR it was 32.6 µM (inactive); in the test on SNB-75 it was > 100 µM (inactive); in the test on MDA-MB-435, 42.3 µM (inactive); in the test on UACC-257, > 100 µM (inactive). The GI50 in the test on NCI-H23 is 52.4 µM (inactive); in the test on UO-31, > 100 µM (inactive); with 786-0, 44.2 µM (inactive); in the test on HOP-62, > 100 µM (inactive); in the test on OVCAR-4, 80.5 µM (inactive); with U-251, 28.4 µM (inactive). For the same compound, the GI50 with T47D was 22.6 µM (inactive).

Regarding `O=C(/C=C(\Nc1ccccc1O)c1ccc(Br)cc1)C(Cl)(Cl)Cl`, the GI50 in the test with HCC 2998 is 2.1 µM (inactive); with MDA-N, 4.69 µM (inactive); in the test with CAKI-1, 6.3 µM (inactive); with SK-MEL-5 it was 14.2 µM (inactive); in the test with OVCAR-5 it was 12.1 µM (inactive); in the test on HOP-92, 2.6 µM (inactive). In addition, the GI50 with NCI-H460 was 3.21 µM (inactive); in the test on UACC-62, 13.3 µM (inactive); with SR, 13.7 µM (inactive); in the test with SNB-75 it was 13.7 µM (inactive); with MDA-MB-435, 8.89 µM (inactive); in the test with UACC-257 it was 7.26 µM (inactive). In addition, the GI50 in the test with NCI-H23 was 12.6 µM (inactive); with UO-31 it was 2.68 µM (inactive); in the test on 786-0 it was 14.4 µM (inactive); with HOP-62, 13.6 µM (inactive); in the test with OVCAR-4, 5.16 µM (inactive); in the test with U-251 it was 3.74 µM (inactive). Also, the GI50 with T47D was 3.95 µM (inactive).

In the case of `CC1=C(C(=O)NCC(C)O)CC(C(=O)NCC(C)O)=C(C)N1` (centres undefined), the GI50 in the test with HCC 2998, in the test on MDA-N, in the test with CAKI-1, in the test with SK-MEL-5, in the test with OVCAR-5 and with HOP-92 was > 100 µM (inactive) throughout. Besides, the GI50 was > 100 µM (inactive) in the test on NCI-H460; > 100 µM (inactive) in the test with UACC-62; > 100 µM (inactive) in the test with SR; 72.9 µM (inactive) in the test with SNB-75; > 100 µM (inactive) in the test with MDA-MB-435; > 100 µM (inactive) in the test with UACC-257. For the same compound, the GI50 in the test on NCI-H23, in the test with UO-31, with 786-0, in the test on HOP-62, with OVCAR-4 and in the test on U-251 was > 100 µM (inactive) throughout. The GI50 in the test on T47D was > 100 µM (inactive).

As for `COc1ccc(CNc2nc3c(NC(C)=O)cc(C(F)(F)F)cc3nc2-c2ccccc2)cc1OC`, the GI50 was > 100 µM (inactive) in the test on HCC 2998; 31.6 µM (inactive) in the test on CAKI-1; 21.5 µM (inactive) in the test with SK-MEL-5; > 100 µM (inactive) with OVCAR-5; > 100 µM (inactive) with NCI-H460; 45.3 µM (inactive) in the test with UACC-62. Further, the GI50 in the test on SNB-75 was 1.32 µM (inactive); with DLD-1, > 100 µM (inactive); in the test on UACC-257, > 100 µM (inactive); in the test on NCI-H23, 59 µM (inactive); in the test on UO-31, 7.45 µM (inactive); with 786-0, 37.1 µM (inactive). Further, the GI50 was 42.1 µM (inactive) with HOP-62, 10.6 µM (inactive) in the test with OVCAR-4 and 93.1 µM (inactive) with U-251.

Turning to `COC(=O)/C=C\C(C#N)(C#N)/N=C/c1cc(Br)cs1`, the GI50 is 16 µM (inactive) in the test on HCC 2998; 2.67 µM (inactive) with MDA-N; 2.96 µM (inactive) with CAKI-1; 6.3 µM (inactive) with SK-MEL-5; 6.84 µM (inactive) in the test with OVCAR-5; 2.19 µM (inactive) in the test with HOP-92. Moreover, the GI50 with NCI-H460 is 19.6 µM (inactive); with UACC-62, 17.7 µM (inactive); with SR, 2.32 µM (inactive); in the test on SNB-75 it was 16.2 µM (inactive); with MDA-MB-435 it was 2.38 µM (inactive); in the test on UACC-257, 2.67 µM (inactive). The GI50 is 5.33 µM (inactive) with NCI-H23; 2.14 µM (inactive) in the test on UO-31; 1.94 µM (inactive) in the test with 786-0; 18.6 µM (inactive) in the test on HOP-62; 7.91 µM (inactive) in the test on OVCAR-4; 13.9 µM (inactive) with U-251. Moreover, the GI50 in the test with T47D is 2.12 µM (inactive).

Consider `O=C1c2c(Br)sc(Br)c2[C@H]2NC(=S)O[C@@H]12`, for which the GI50 is 20.5 µM (inactive) in the test on HCC 2998; 16 µM (inactive) with MDA-N; 11.8 µM (inactive) with CAKI-1; 15.8 µM (inactive) with SK-MEL-5; 19.2 µM (inactive) in the test on OVCAR-5; 18 µM (inactive) in the test on HOP-92. The GI50 with NCI-H460 is 18.6 µM (inactive); in the test on UACC-62, 15.7 µM (inactive); in the test with SR, 2.41 µM (inactive); in the test with SNB-75, 19.1 µM (inactive); in the test on MDA-MB-435, 13.8 µM (inactive); with UACC-257, 16.8 µM (inactive). The GI50 in the test with NCI-H23 was 14.8 µM (inactive); in the test on UO-31 it was 15.3 µM (inactive); with 786-0, 14.2 µM (inactive); in the test with HOP-62, 18 µM (inactive); in the test with OVCAR-4 it was 17.1 µM (inactive); in the test on U-251, 13.2 µM (inactive). In addition, the GI50 in the test on T47D is 21.8 µM (inactive).

For `C[C@@]12C(=O)OC(=O)[C@]1(C)[C@H]1CC[C@@H]2O1` [CANTHARIDIN], the GI50 was 1.53 µM (inactive) with HCC 2998; 2.91 µM (inactive) in the test on MDA-N; 0.791 µM (active) in the test on CAKI-1; 0.973 µM (active) in the test on SK-MEL-5; 2.45 µM (inactive) with OVCAR-5; 0.61 µM (active) with HOP-92. In addition, the GI50 is 2.72 µM (inactive) in the test on NCI-H460; 2.12 µM (inactive) in the test on UACC-62; 2.61 µM (inactive) in the test with SR; 0.472 µM (active) in the test on SNB-75; 1.89 µM (inactive) with MDA-MB-435; 2.65 µM (inactive) with UACC-257. Moreover, the GI50 in the test with NCI-H23 is 5.07 µM (inactive); in the test on UO-31, 2.64 µM (inactive); with 786-0 it was 1.74 µM (inactive); with HOP-62, 2.44 µM (inactive); in the test with OVCAR-4 it was 2.58 µM (inactive); with U-251, 1.41 µM (inactive). In addition, the GI50 in the test on T47D is 1.68 µM (inactive).
